Source: PubChem BioAssay (NCI)
Several values for one entry are separate records, joined by “and”; a condition that tells them apart may be missing. Equal entries are not always repeated.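 48-hour exposure; five concentrations; linearly interpolated endpoints. GI50: concentration for 50% inhibition of growth. The concentration for full growth arrest is given as TGI.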

Assays:
Experiment in all cases: inhibition of tumour cell growth, NCI panel, 48 h
[1] = test system: SW-620 colon
[2] = test system: SK-MEL-28 melanoma
[3] = test system: MDA-MB-231 breast
[4] = test system: OVCAR-3 ovarian
[5] = test system: EKVX NSCLC
[6] = test system: BT-549 breast
[7] = test system: KM12 colon
[8] = test system: UO-31 renal
[9] = test system: IGROV1 ovarian
[10] = test system: OVCAR-8 ovarian
[11] = test system: LOX IMVI melanoma
[12] = test system: HT29 colon
[13] = test system: U251 CNS
[14] = test system: SNB-19 CNS
[15] = test system: RPMI-8226 leukemia

| SMILES | TGI [1] [µM] | TGI [2] [µM] | TGI [3] [µM] | TGI [4] [µM] | TGI [5] [µM] | TGI [6] [µM] | TGI [7] [µM] | TGI [8] [µM] | TGI [9] [µM] | TGI [10] [µM] | TGI [11] [µM] | TGI [12] [µM] | TGI [13] [µM] | TGI [14] [µM] | TGI [15] [µM] | GI50 [1] [µM] | GI50 [2] [µM] | GI50 [7] | GI50 [12] [µM] | GI50 [14] [µM] |
| --- | --- | --- | --- | --- | --- | --- | --- | --- | --- | --- | --- | --- | --- | --- | --- | --- | --- | --- | --- | --- |
| N#Cc1ccccc1NC(=O)C(O)C(O)C(O)C(O)C=O (stereo not given) | > 100 | > 100 | > 100 | > 100 | > 100 | > 100 | > 100 | > 100 | > 100 | > 100 | > 100 | > 100 | > 100 | > 100 |  |  |  |  |  |  |
| O=C(O)CNc1ncc2c(n1)-c1ccccc1OC2 | > 100 | > 100 | > 100 | > 100 | > 100 |  | > 100 | > 100 | > 100 | > 100 | > 100 | > 100 | > 100 | > 100 | > 100 |  |  |  |  |  |
| O=C(NC1C(=O)NC(CCc2ccccc2)NC1=O)OCc1ccccc1 (stereo not given) | > 100 | > 100 | > 100 | > 100 | > 100 |  | > 100 | > 100 | > 100 | > 100 | > 100 | > 100 | > 100 | > 100 | > 100 |  |  |  |  |  |
| c1ccc(CSCCC(SCc2ccccc2)SCc2ccccc2)cc1 | > 10 | > 10 | > 10 | > 10 | > 10 |  | > 10 | > 10 | > 10 | > 10 | > 10 | > 10 | > 10 | > 10 | > 10 |  |  |  |  |  |
| COc1cc2c(c(OC)c1OC)[C@@H]1CCCCC[C@@H]1CCC2=O | > 100 | > 100 |  | > 100 | > 100 |  | > 100 | > 100 | > 100 | > 100 | 38.9 | > 100 | > 100 | > 100 | > 64.1 |  |  |  |  |  |
| O=C1C[C@@H]2[C@@H](C=CC23CCCC3)N1O | > 100 | > 100 |  | > 100 | > 100 |  | > 100 | > 100 | > 100 | > 100 | > 100 | > 100 | > 100 | > 100 | > 100 |  |  |  |  |  |
| O=C(O)C(Cc1ccc(O)cc1)N=Cc1nc(-c2ccccc2)oc1O (stereo not given) | > 100 | > 100 |  | > 100 | > 100 |  | > 100 | > 100 |  | > 100 | > 100 | > 100 | > 100 | > 100 | > 100 |  |  |  |  |  |
| CC(=O)/C=C1/C(=O)C(CC(C)C)=C1CC(C)C | > 100 | > 100 | > 100 |  | > 100 |  | > 100 | > 100 | > 100 | > 100 | > 100 | > 100 | > 100 | > 100 |  |  |  |  |  |  |
| C=Cc1c(-c2ccccc2)cnc2[nH]c3ccccc3c12 | > 50 | > 50 |  | > 50 | > 50 |  | > 50 | > 50 | > 50 | > 50 | > 50 | > 50 | > 50 | > 50 | > 50 |  |  |  |  |  |
| NC(N)=N/N=C/c1c(Cl)nc2n1CCS2 | > 100 | > 100 |  | > 100 | > 100 | > 100 | > 100 | > 100 | > 100 | > 100 | > 100 | > 100 | > 100 | > 100 | > 100 |  |  |  |  |  |
| COc1cc(CNc2ccc(C)cc2)cc(OC)c1OC |  | > 100 |  | 0.597 | > 100 |  | 2.33 | > 100 | > 100 |  | > 100 | 0.852 | 1.2 | > 100 | > 50.2 | 0.203 | 0.525 | 0.104 µM and 0.341 µM | 0.156 | 0.959 |
| COc1cc(C(C)c2cc3c(cc2OCCCCCOc2cc4c(cc2C(C)c2cc(OC)c(OC)c(OC)c2)OCO4)OCO3)cc(OC)c1OC (stereo not given) | > 100 | > 100 |  | > 100 | > 100 |  | > 100 | > 100 | > 100 | > 100 | > 100 | > 100 | > 100 | > 100 | > 100 |  |  |  |  |  |
| COc1cccc(C2c3cc4c(cc3OC(N3CCCC3)C2c2ccccc2)OCO4)c1O (stereo not given) | 25.4 | 28.1 |  | 27.8 | 73.3 |  | 18.7 | 20.1 | 47.8 | 61.2 | 46.2 | 26.2 |  | 27.7 | 31 |  |  |  |  |  |
| COc1c(O)ccc(/C=N/NC(=S)NCOCCOC(C)=O)c1OC | > 100 | > 100 |  | > 100 | > 100 |  | > 100 | > 100 | > 100 | > 100 | > 100 | > 100 | > 100 | > 100 |  |  |  |  |  |  |
| CN1CC[C@@]2(c3cccc(O)c3)CC(=O)/C(=C/c3ccc(Cl)c(Cl)c3)[C@H]1C2 | 3.06 | 4.65 |  | 4.07 | 21 | 4.33 |  | 4.33 | 5.65 | 10.1 | 2.81 | 2.72 | 2.67 | 12.5 | 4.37 |  |  |  |  |  |
| Cc1nsc2cc(Cl)n(C)c(=O)c12 | > 100 | > 100 |  | > 100 | > 100 |  | > 100 | > 100 | > 100 | > 100 | > 100 | > 100 | > 100 | > 100 | > 100 |  |  |  |  |  |
| c1ccc(Nc2nnc(-c3ccccc3Nc3ccccc3-c3nnc(Nc4ccccc4)s3)s2)cc1 | > 100 | > 100 |  | > 100 | > 100 | > 100 | > 100 | > 100 | > 100 | > 100 | > 100 | > 100 | > 100 | > 100 |  |  |  |  |  |  |
